Holding throughout (assay type): cell-based
Assay [1] has as its target T1, MRGPRX2 (Homo sapiens, UniProt Q96LB1).
T1 sequence (Q96LB1 1-330): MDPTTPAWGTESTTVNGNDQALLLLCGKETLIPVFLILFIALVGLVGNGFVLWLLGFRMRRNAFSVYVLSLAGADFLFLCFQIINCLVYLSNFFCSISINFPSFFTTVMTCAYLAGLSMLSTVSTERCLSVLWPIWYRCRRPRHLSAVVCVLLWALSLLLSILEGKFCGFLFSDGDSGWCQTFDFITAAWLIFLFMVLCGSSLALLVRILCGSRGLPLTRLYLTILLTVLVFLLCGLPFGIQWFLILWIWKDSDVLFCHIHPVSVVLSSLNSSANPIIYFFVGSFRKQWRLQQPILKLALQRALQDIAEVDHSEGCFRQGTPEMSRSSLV
Put plainly: MRGPRX2 FLIPR calcium mobilization assay. More on the design: host or cells: CHO-K1. To be noted: CHO-K1 cells stably expressing human MRGPRX2; Ca2+ release; agonist Cortistatin-14 at EC80. The method, then:
Chinese hamster ovary (CHO-K1) cells stably expressing human MRGPRX2 were purchased from Genescript (Piscataway, NJ). The cells were maintained in culture medium (Ham's F-12K) containing 10% (v/v) FBS, 200 μg/mL Zeocin, 100 units/mL penicillin G and 100 μg/mL streptomycin (Life Technologies, Carlsbad, CA). For the assay, the cells were harvested and resuspended with culture medium without Zeocin before plating at 8000 cells per well in 20 μL in 384-well black clear bottom cell culture plates (VWR, Radnor, PA). After 24 hour culture at 37° C. and 5% CO2, the cells were loaded with 20 μL/well of calcium dye (FLIPR Calcium 6 Assay Kit, Molecular Devices, San Jose, CA) diluted in loading buffer (1× Hank's Balanced Salt Solution (HBSS), 5 mM probenecid, 20 mM 4-(2-hydroxyethyl)-1-piperazineethanesulfonic acid (HEPES), pH 7.4, VWR, Radnor, PA) followed with 45 min incubation at 37° C. and 40 min. at r.t. in the dark. Cells were then treated with the addition of 10 uL/well test compounds with a range of increasing concentrations diluted in the assay buffer (1×HBSS, 20 mM HEPES, pH 7.4, VWR, Radnor, PA) with FLIPR Penta (Molecular Devices. San Jose, CA) and incubated for 30 min. at r.t. Ca^2+ release was measured with FLIPR Penta with 10 s basal fluorescence measurement, then 12.5 μL of 5× agonist Cortistatin-14 (Tocris, Minneapolis, MN) at final concentration corresponding to the EC80 were added followed with continued fluorescence signal monitoring for an additional 110 s. The base line adjusted (median of first 10 s base line) max value of the Relative Fluorescence Unit (RFU) was plotted against compound concentrations. Wells with no compound were served as the positive controls, and wells with high concentration of reference antagonist were used as negative controls. IC50 curves were globally fitted with 3- or 4-parameter Hill equation in a Genedata Screener (Genedata Basel, Switzerland).
On the technique in general: Calcium assays in cells follow changes in intracellular calcium, usually with a dye or a luminescent sensor.

Assay [2] concerns the target T1, MRGPRX2. Put plainly: MRGPRX2 IP1 HTRF assay. The arrangement: host or cells: CHO-K1. To be noted: CHO-K1 cells stably expressing human MRGPRX2; IP1 accumulation; agonist Cortistatin 14 1 μM. The method, then:
This assay measures compound inhibition of myo-Inositol 1 phosphate (IP1) accumulation in CHO-K1 cells. Chinese hamster ovary (CHO-K1) cells stably expressing human MRGPRX2 were purchased from GenScript (Piscataway, NJ).
For the HTRF IP1 determination, an IP-One GqKit (Perkin Elmer Cisbio, Waltham, MA), which includes all reagents and buffers in this protocol, was used. The cells were maintained in culture medium (Ham's F-12K) containing 10% (v/v) FBS, and 200 μg/mL Zeocin. For the assay, the cells were harvested and resuspended in culture medium with 2% FBS and without Zeocin, then were passed through a 40 μm filter. Cells were added at 20000 cells in a 5 μL/well to a 384-well white small volume cell culture plate (Greiner VWR, Radnor, PA) which contained 50 nL/well of test compound serially diluted at a selected concentration range in DMSO. 5 μL/well of prepared 2× Stimulation Buffer 2 was then added to plates and was incubated at 37° C. with 5% CO2 for 1 h. 5 μL/well of agonist Cortistatin 14 (Bio-TechneR&D Systems, Minneapolis, MN) in 1× Stimulation Buffer 2, for a 1 μM final concentration, was then added to plates and incubated at 37° C. with 5% CO2 for 1 h. 6 μL/well of 1:20 diluted Detection Reagent Mix (d2 and Cryptate) was added to the plates and incubated for 1 h in the dark. Plates were read on the PHERAstar microplate reader (BMG Labtech Cary, NC) to determine the HTRF ratio of the acceptor and donor emission signals. The IP1 concentrations were calculated from a standard curve following the IP-One GQ kit instructions. Wells with DMSO only and wells with high concentration of reference antagonist were used as controls for normalization. Compound IC50 curves were globally fitted with 3- or 4-parameter Hill equation in a Genedata Screener (Genedata Basel, Switzerland).
(In general: In TR-FRET formats the signal depends on donor and acceptor labels being close together.)

Assay [3] has as its target T1, MRGPRX2. The experiment in a line: MRGPRX2 β-Arrestin assay. The arrangement: host or cells: PathHunter CHO-K1. The note with it: PathHunter CHO-K1 MRGPRX2 β-Arrestin cell line; agonist Cortistatin 14 0.25 μM. An excerpt:
This assay measures compound inhibition of β-Arrestin recruitment, which is part of the G protein-independent pathway that results from the ligand-activated GPCR phosphorylation by specific GPCR kinases. The PathHunter CHO-K1 MRPGRX2 β-Arrestin Cell line stably expressing ProLink tagged MRGPRX2 and Enzyme Acceptor Tagged β-Arrestin was purchased from Eurofins DiscoverX, (Fremont, CA).
The cells were maintained in culture medium from the Europhins DiscoverX Cell Culture Kit-107 which includes FBS, hygromycin B and G418. For the assay, the cells were harvested and were resuspended with Cell Plating Reagent 2 (Eurofins DiscoverX). Cells were added 10000 cells in 25 μL/well to a 384-well black cell culture plate (Greiner VWR, Radnor, PA) which contained 125 nL/well of compound at a selected serially diluted concentration range or DMSO. The plate was incubated at 37° C. with 5% CO2 for 1 h. 2 μL/well of agonist Cortistatin 14 was diluted in Protein Dilution Buffer, (Eurofins DiscoverX) for a final concentration of 0.25 μM, was added and the plate was incubated at 37° C. with 5% CO2 for 90 min. 14 μL/well of Detection Reagent Mix (PathHunter Detection Kit, Eurofins DiscoverX) was added to the plates and further incubated for 1 h in the dark. Plates were read on the PHERAstar microplate reader (BMG Labtech Cary, NC) measuring luminescence 0.1 to 1 s per well. Data was normalized using DMSO only wells and wells with high concentration of reference antagonist as controls. Compound IC50 curves were globally fitted with 3- or 4-parameter Hill equation in a Genedata Screener (Genedata Basel, Switzerland).

In the case of `Cn1ncc2c(N[C@@H]3CCC[C@H](Nc4cc(C(F)(F)F)nc5ccc(Cl)cc45)C3)nccc21` [Example 19, (1S,3R)-N^1-(6-Chloro-2-(trifluoromethyl)quinolin-4-yl)-N^3-(1-methyl-1H-pyrazolo[4,3-c]pyridin-4-yl)cyclohexane-1,3-diamine], the 50% inhibitory concentration (IC50) on MRGPRX2 [1], on MRGPRX2 [2] and on MRGPRX2 [3] was 0.1 to 100 nM each time.

With `Cn1c(C#N)cnc1N[C@@H]1CCC[C@H](Nc2cc(C(F)(F)F)nc3ccc(Cl)cc23)C1` [Example 20, 2-(((1R,3S)-3-((6-Chloro-2-(trifluoromethyl)quinolin-4-yl)amino)cyclohexyl)amino)-1-methyl-1H-imidazole-5-carbonitrile], the IC50 on MRGPRX2 [1], on MRGPRX2 [2] and on MRGPRX2 [3] was 0.1 to 100 nM in each case.

For the molecule `Cn1c(N[C@@H]2CCC[C@H](Nc3cc(C(F)(F)F)nc4ccc(Cl)cc34)C2)nc2cccnc21` [Example 21, (1S,3R)-N^1-(6-Chloro-2-(trifluoromethyl)quinolin-4-yl)-N^3-(3-methyl-3H-imidazo[4,5-b]pyridin-2-yl)cyclohexane-1,3-diamine], the IC50 at MRGPRX2 [1], on MRGPRX2 [2] and at MRGPRX2 [3] was 0.1 to 100 nM each time.

In the case of `Cn1cnc2ccnc(N[C@H]3CC[C@@H](Nc4cc(C(F)(F)F)nc5ccccc45)CC3)c21` [Example 22, (1s,4s)-N^1-(3-Methyl-3H-imidazo[4,5-c]pyridin-4-yl)-N^4-(2-(trifluoromethyl)quinolin-4-yl)cyclohexane-1,4-diamine], the figures for the IC50 at MRGPRX2 [1], at MRGPRX2 [2] and at MRGPRX2 [3] were 0.1 to 100 nM, 100 to 1000 nM and 0.1 to 100 nM, respectively.

As to `Cn1cnc2ccnc(N[C@H]3CC[C@@H](Nc4cc(C(F)(F)F)nc5ccc(F)cc45)CC3)c21` [Example 23, (1s,4s)-N^1-(6-Fluoro-2-(trifluoromethyl)quinolin-4-yl)-N^4-(3-methyl-3H-imidazo[4,5-c]pyridin-4-yl)cyclohexane-1,4-diamine], the half-maximal inhibitory concentration (IC50) at MRGPRX2 [1], at MRGPRX2 [2] and on MRGPRX2 [3] was 0.1 to 100 nM each time.

Consider `FC(F)(F)c1cc(N[C@H]2CCC[C@@H](Nc3nnc4ccccn34)C2)c2cc(Cl)ccc2n1` [Example 24, (1R,3S)-N^1-([1,2,4]Triazolo[4,3-a]pyridin-3-yl)-N^3-(6-chloro-2-(trifluoromethyl)quinolin-4-yl)cyclohexane-1,3-diamine], for which the IC50 at MRGPRX2 [1], on MRGPRX2 [2] and on MRGPRX2 [3] was 0.1 to 100 nM throughout.

Regarding `Fc1ccc2nc(C(F)(F)F)cc(N[C@H]3CCC[C@@H](Nc4nccc5ncccc45)C3)c2c1` [Example 25, (1S,3R)-N^1-(6-Fluoro-2-(trifluoromethyl)quinolin-4-yl)-N^3-(1,6-naphthyridin-5-yl)cyclohexane-1,3-diamine], the IC50 on MRGPRX2 [1], at MRGPRX2 [2] and on MRGPRX2 [3] was 0.1 to 100 nM throughout.

Regarding `FC(F)(F)c1cc(N[C@H]2CCC[C@@H](Nc3ncnc4ncccc34)C2)c2cc(Cl)ccc2n1` [Example 26, (1S,3R)-N^1-(6-Chloro-2-(trifluoromethyl)quinolin-4-yl)-N^3-(pyrido[2,3-d]pyrimidin-4-yl)cyclohexane-1,3-diamine], the IC50 at MRGPRX2 [1], at MRGPRX2 [2] and at MRGPRX2 [3] was 0.1 to 100 nM throughout.

Consider `Fc1ccc2nc(C(F)(F)F)cc(N[C@H]3CCC[C@@H](Nc4nnc5ccccn45)C3)c2c1` [Example 33, (1R,3S)-N^1-([1,2,4]Triazolo[4,3-a]pyridin-3-yl)-N^3-(6-fluoro-2-(trifluoromethyl)quinolin-4-yl)cyclohexane-1,3-diamine], for which the IC50 on MRGPRX2 [1], at MRGPRX2 [2] and on MRGPRX2 [3] was 0.1 to 100 nM throughout.

As to `FC(F)(F)c1cc(N[C@H]2CCC[C@@H](Nc3nnc4n3CCCC4)C2)c2cc(Cl)ccc2n1` [Example 35, (1S,3R)-N^1-(6-Chloro-2-(trifluoromethyl)quinolin-4-yl)-N^3-(5,6,7,8-tetrahydro-[1,2,4]triazolo[4,3-a]pyridin-3-yl)cyclohexane-1,3-diamine], the IC50 at MRGPRX2 [1], on MRGPRX2 [2] and at MRGPRX2 [3] was 0.1 to 100 nM each time.

With `FC(F)(F)c1cc(N[C@H]2CCC[C@@H](Nc3nnc4n3CCOC4)C2)c2cc(Cl)ccc2n1` [Example 36, (1S,3R)-N^1-(6-Chloro-2-(trifluoromethyl)quinolin-4-yl)-N^3-(5,6-dihydro-8H-[1,2,4]triazolo[3,4-c][1,4]oxazin-3-yl)cyclohexane-1,3-diamine], the IC50 at MRGPRX2 [1], at MRGPRX2 [2] and at MRGPRX2 [3] was 0.1 to 100 nM in each case.

The IC50 is the concentration needed to halve the response being measured.

Source of the values: patent US20250270208A1, “BICYCLIC HETEROCYCLES AS MRGPRX2 ANTAGONISTS” (Incyte Corporation, priority 2023, published 2025).
